IC50 data for 40 compounds are collected here from patent US5861476A, “Peptides and compounds that bind to the IL-1 receptor” (Affymax Technologies N.V., priority 1995, dated 1999).

Where two headings read alike, the source gives them in different places. Where a SMILES comes first, the peptide text is derived from it. Where no end group is shown, it is not given here. [ ]: non-standard residue; d: D form. Bpa = N[C@@H](Cc1ccc(C(=O)c2ccccc2)cc1)C(=O)O; Aze = O=C(O)[C@@H]1CCN1

The assay deals with T1, IL-1RtI (Homo sapiens, UniProt P14778).
T1 construct: made in house; host or cells: recombinant host cells (one form soluble from baculovirus transformed host cells; another PIG-tailed and cleaved from the cell surface)
T1 sequence (P14778 18-336): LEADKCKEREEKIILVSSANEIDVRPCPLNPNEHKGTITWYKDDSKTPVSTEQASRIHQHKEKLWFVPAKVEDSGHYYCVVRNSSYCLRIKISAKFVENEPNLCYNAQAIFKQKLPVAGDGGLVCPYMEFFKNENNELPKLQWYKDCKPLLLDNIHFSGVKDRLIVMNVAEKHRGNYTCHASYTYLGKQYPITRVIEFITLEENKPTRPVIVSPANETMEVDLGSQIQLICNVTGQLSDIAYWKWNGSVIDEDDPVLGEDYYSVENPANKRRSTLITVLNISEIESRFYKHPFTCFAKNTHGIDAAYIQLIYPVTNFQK
In words: Inhibition of 125I-IL-1α binding to IL-1RtI (Example 3). The protocol:
This example provides the results of experiments conducted to determine an approximate IC50 for certain peptides of the invention. IC50 as used herein refers to the concentration of a compound which will inhibit 50% of the binding between a receptor and its ligand, e.g. IL-1RtI and IL-1. Stock solutions of each peptide were prepared. The appropriate amount of the peptide was dissolved in DMSO, and then nineteen volumes of binding buffer (RPMI 1640, 1% BSA, 20 mM HEPES, pH 7.2-7.3, and 0.1% sodium azide) were added to yield a 1 mM peptide, 5% DMSO stock solution.
One assay utilized a truncated IL-1RtI which had been immobilized on 96-well plates with an appropriate antibody, typically a non-blocking high affinity antibody. In other assays, cells expressing "full-length" IL-1RtI were used with results that yielded IC50 values about 5 to 10 fold lower than those determined using the truncated receptor. The cells were seeded onto Falcon 3072 96-well plates at about 10^5 cells per well, and the plates were incubated overnight at 37° C. in media containing serum. The following morning, the cells were checked to ensure that the cells were confluent and adhered to the bottom of the wells.
According to either assay protocol, the plates were then washed three times with binding buffer, and then 50 μl of binding buffer and 25 μl of a peptide solution (either the stock solution or a dilution thereof; each stock was subjected to five three fold dilutions) were added to each well. Then 25 μl of binding buffer containing ^125 I-IL-1α (final concentration of 90 pM) were added to each well to begin the assay. Each assay was carried out in duplicate. The plates were then incubated for two hours at 4° C. For peptides having particularly high affinities, the assay was run in 24 well plates allowing for higher levels of ligand (possible total volume of 2.5 ml instead of 100 μl in the 96 well plate), thereby minimizing the potential for ligand depletion.
After the two hour incubation, the wells were rinsed three times with ice cold PBS (a semi-automated cell harvesting device was used to conduct the rinse). The receptors or cells were then detached from the plates by adding 100 μl of 0.1N NaOH to each well and incubating the plates at room temperature for 20 minutes. After the 20 minute incubation, about 75 μl of the suspension was counted on a gamma counter, and the IC50 for each peptide was determined using computer assistance and the results of the gamma counting.

Setting [1] is: inhibition of 125I-IL-1α binding to IL-1RtI, soluble peptide unless marked *.

PWIQPYARGFG [PWIQPYARGFG] gave an IC50 under setting [1] of at most 100 µM.
On to “SVGEDHNFWTSEYWQPYALPL [SVGEDHNFWTSE YWQPYALPL]”, for which, under setting [1], the IC50 is at most 0.5 µM.
Compound SRVWFQPYSLQS [3H1, 6, 12, SRVWFQPYSLQS] showed an IC50 under setting [1] of at most 100 µM.
DNSSWYDSFLL [DNSSWYDSFLL]: under setting [1], the IC50 was at most 100 µM.
Take `C[C@@H](O)[C@H](NC(=O)[C@H](Cc1c[nH]c2ccccc12)NC(=O)[C@H](CCC(=O)O)NC(=O)[C@@H](N)Cc1ccccc1)C(=O)N1CCC[C@H]1C(=O)N[C@H](CO)C(=O)N[C@@H](Cc1ccc(O)cc1)C(=O)N[C@@H](Cc1ccc(O)cc1)C(=O)N[C@@H](CCC(N)=O)C(=O)N1CC[C@H]1C(=O)N[C@@H](Cc1ccc(O)cc1)C(N)=O` [FEWTPsYYQJY-NH2] (H-FEWTP[dS]YYQ[Aze]Y-NH2): the IC50 is below 0.5 µM.
On to GVVWYQPYALPL [GVVWYQ PYALPL], for which the IC50 under setting [1] was above 100 µM.
Still for that read-out and setting: for “ENTYSPNWADSMYWQPYALPL [ENTYSPNWADSM YWQPYALPL]” the value was at most 0.5 µM; for VIEWWQPYALPL [VIEWWQ PYALPL], at most 100 µM.
Take YFQPYALPF [YFQPYALPF]: the IC50 under setting [1] is above 100 µM.
TYTYDNTAWYERFLMSY [TYTYDNTAWYERFLMSY] returned an IC50 below 0.5 µM.
Turning to SWHSVYWQPYSVQSVPE [SWHS VYWQPYSVQ SVPE], the IC50 under setting [1] was at most 100 µM.
For the compound EGWWVQPYALPL [EGWWVQ PYALPL], under setting [1], the IC50 is at most 100 µM.
`C[C@@H](O)[C@H](NC(=O)[C@H](Cc1c[nH]c2ccccc12)NC(=O)[C@H](CCC(=O)O)NC(=O)[C@@H](N)Cc1ccccc1)C(=O)N1CCC[C@H]1C(=O)N[C@H](CC(N)=O)C(=O)N[C@@H](Cc1ccc(O)cc1)C(=O)N[C@@H](Cc1ccc(O)cc1)C(=O)N[C@@H](CCC(N)=O)C(=O)N1CC[C@H]1C(=O)N[C@@H](Cc1ccc(O)cc1)C(N)=O` [FEWTPnYYQJY-NH2] (H-FEWTP[dN]YYQ[Aze]Y-NH2) yielded an IC50 below 0.5 µM.
Compound YYTWQQPYALPL [YYTWQQ PYALPL] displayed a half-inhibitory concentration (IC50) under setting [1] above 100 µM.
The compound `C[C@H](NC(=O)[C@H](CC(N)=O)NC(=O)[C@H](CO)NC(=O)[C@H](CCC(=O)O)NC(=O)[C@H](CCC(=O)O)NC(=O)[C@H](Cc1c[nH]c2ccccc12)NC(=O)[C@@H](NC(=O)[C@@H](N)Cc1ccccc1)[C@@H](C)O)C(=O)N[C@@H](Cc1ccc(O)cc1)C(=O)N[C@@H](Cc1ccc(O)cc1)C(=O)N[C@@H](Cc1c[nH]c2ccccc12)C(=O)N[C@@H](CCC(N)=O)C(=O)N1CC[C@H]1C(=O)N[C@@H](Cc1ccc(O)cc1)C(N)=O` [FTWEESNAYYWQJY-NH2] (H-FTWEESNAYYWQ[Aze]Y-NH2) gave an IC50 below 0.5 µM.
Compound RFMYWQPYSVQR [RFMYWQPYSVQR] yielded an IC50 under setting [1] of at most 100 µM.
On the same count and under the same terms, for WRDSVYWQPYSVQPESA [WRDS VYWQPYSVQ PESA] the value was at most 100 µM.
Compound HIDNTAWYENFLLTYTP [HIDNTAWYENFLLTYTP] gave an IC50 below 0.5 µM.
Under setting [1], WLAWEQPYALPL [WLAWEQ PYALPL] returned an IC50 of at most 100 µM.
With `C[C@H](NC(=O)[C@H](Cc1c[nH]c2ccccc12)NC(=O)[C@H](Cc1ccc(O)cc1)NC(=O)CNC(=O)[C@@H]1CCCN1C(=O)[C@@H](NC(=O)[C@H](Cc1c[nH]c2ccccc12)NC(=O)[C@H](CCC(=O)O)NC(=O)[C@@H](N)Cc1ccccc1)[C@@H](C)O)C(=O)N1CC[C@H]1C(=O)N[C@@H](Cc1ccc(O)cc1)C(N)=O` [FEWTPGYWAJY--NH2] (H-FEWTPGYWA[Aze]Y-NH2), the IC50 under setting [1] is above 100 µM.
On the same count and under the same terms, for DNTAWYESFLA [DNTAWYESFLA] the value was at most 100 µM; for HWGHVYWQPYSVQDDLG [HWGH VYWQPYSVQ DDLG], at most 100 µM.
Still for that read-out and setting: for `C[C@@H](O)[C@H](NC(=O)[C@H](Cc1c[nH]c2ccccc12)NC(=O)[C@H](CCC(=O)O)NC(=O)[C@@H](N)Cc1ccccc1)C(=O)N1CCC[C@H]1C(=O)NCC(=O)N[C@@H](Cc1ccc(O)cc1)C(=O)N[C@@H](Cc1ccc(C(=O)c2ccccc2)cc1)C(=O)N[C@@H](CCC(N)=O)C(=O)N1CC[C@H]1C(=O)N[C@@H](Cc1ccc(O)cc1)C(N)=O` [FEWTPGY--Bpa--QJY--NH2] (H-FEWTPGY[Bpa]Q[Aze]Y-NH2) the value was at most 0.5 µM; for `CC(C)[C@H](NC(=O)[C@H](Cc1c[nH]c2ccccc12)NC(=O)[C@H](CCC(=O)O)NC(=O)[C@@H](N)Cc1ccccc1)C(=O)N1CCC[C@H]1C(=O)NCC(=O)N[C@@H](Cc1ccc(O)cc1)C(=O)N[C@@H](Cc1ccc(O)cc1)C(=O)N[C@@H](CCC(N)=O)C(=O)N1CC[C@H]1C(=O)N[C@@H](Cc1ccc(O)cc1)C(N)=O` [FEWVPGYYQJY--NH2] (H-FEWVPGYYQ[Aze]Y-NH2), at most 0.5 µM; for YYSWQPYALPL [YYSWQ PYALPL], above 100 µM.
The same measure, in the same setting: for `C[C@@H](O)[C@H](NC(=O)[C@H](Cc1c[nH]c2ccccc12)NC(=O)[C@H](CCC(=O)O)NC(=O)[C@@H](N)Cc1ccc(O)cc1)C(=O)N1CCC[C@H]1C(=O)NCC(=O)N[C@@H](Cc1ccc(O)cc1)C(=O)N[C@@H](Cc1ccc(O)cc1)C(=O)N[C@@H](CCC(N)=O)C(=O)N1CC[C@H]1C(=O)N[C@@H](Cc1ccc(O)cc1)C(N)=O` [YEWTPGYYQJY--NH2] (H-YEWTPGYYQ[Aze]Y-NH2) the value was at most 0.5 µM; for `C[C@@H](O)[C@H](NC(=O)[C@H](Cc1c[nH]c2ccccc12)NC(=O)[C@H](CCC(=O)O)NC(=O)[C@@H](N)Cc1ccccc1)C(=O)N1CCC[C@H]1C(=O)NCC(=O)N[C@@H](Cc1ccc(O)cc1)C(=O)N[C@@H](Cc1ccc(O)cc1)C(=O)N[C@@H](CCC(N)=O)C(=O)N1CC[C@H]1C(=O)N[C@@H](Cc1ccc(C(=O)c2ccccc2)cc1)C(N)=O` [FEWTPGYYQJ--Bpa--NH2] (H-FEWTPGYYQ[Aze][Bpa]-NH2), at most 100 µM.
Take YFQPYALGL [YFQPYALGL]: the IC50 under setting [1] was at most 100 µM.
Under setting [1], “RLVYWQPYSVQT [Peptide 3H2, RLVYWQPYSVQT]” gave an IC50 of at most 100 µM.
For the compound DNTAWYENFLL [DNTAWYENFLL], the IC50 under setting [1] was at most 100 µM.
Under setting [1], IWYQPYAMPL [IWYQPYAMPL] had an IC50 of at most 100 µM.
`C[C@@H](O)[C@H](NC(=O)[C@H](Cc1c[nH]c2ccccc12)NC(=O)[C@H](CCC(=O)O)NC(=O)[C@@H](N)Cc1ccc(C(=O)c2ccccc2)cc1)C(=O)N1CCC[C@H]1C(=O)NCC(=O)N[C@@H](Cc1ccc(O)cc1)C(=O)N[C@@H](Cc1ccc(O)cc1)C(=O)N[C@@H](CCC(N)=O)C(=O)N1CC[C@H]1C(=O)N[C@@H](Cc1ccc(O)cc1)C(N)=O` [Bpa--EWTPGYYQJY--NH2] (H-[Bpa]EWTPGYYQ[Aze]Y-NH2) came in with an IC50 under setting [1] of at most 0.5 µM.
FTWEESNAYYWQPY-NH2 [FTWEESNAYYWQPY-NH2]: the IC50 was below 0.5 µM.
The compound RWWQPYATPL [RWWQPYATPL] yielded an IC50 under setting [1] of at most 100 µM.
For the compound AHTWWQPYALPL [AHTWWQ PYALPL], the IC50 under setting [1] was at most 100 µM.
Still for that read-out and setting: to `C[C@H](NC(=O)[C@@H](NC(=O)[C@H](Cc1c[nH]c2ccccc12)NC(=O)[C@H](CCC(=O)O)NC(=O)[C@@H](N)Cc1ccccc1)[C@@H](C)O)C(=O)NCC(=O)N[C@@H](Cc1ccc(O)cc1)C(=O)N[C@@H](Cc1c[nH]c2ccccc12)C(=O)N[C@@H](CCC(N)=O)C(=O)N1CC[C@H]1C(=O)N[C@@H](Cc1ccc(O)cc1)C(N)=O` [FEWTAGYWQJY--NH2] (H-FEWTAGYWQ[Aze]Y-NH2) belongs at most 0.5 µM; to RFDYWQPYSDQT [RFDYWQPYSDQT], at most 100 µM; to `CC(=O)N[C@@H](Cc1ccccc1)C(=O)N[C@@H](CCC(=O)O)C(=O)N[C@@H](Cc1c[nH]c2ccccc12)C(=O)N[C@H](C(=O)N1CCC[C@H]1C(=O)NCC(=O)N[C@@H](Cc1ccc(O)cc1)C(=O)N[C@@H](Cc1ccc(O)cc1)C(=O)N[C@@H](CCC(N)=O)C(=O)N1CC[C@H]1C(=O)N[C@@H](Cc1ccc(C(=O)c2ccccc2)cc1)C(N)=O)[C@@H](C)O` [AcFEWTPGYYQJ--Bpa--NH2] (Ac-FEWTPGYYQ[Aze][Bpa]-NH2), at most 100 µM.
The same measure, in the same setting: to YWYQPYALGL [YWYQPYALGL] belongs at most 100 µM.
Same read-out and setting: to `C[C@H](N)C(=O)N[C@@H](CCC(=O)O)C(=O)N[C@@H](Cc1c[nH]c2ccccc12)C(=O)N[C@H](C(=O)N1CCC[C@H]1C(=O)NCC(=O)N[C@@H](Cc1ccc(O)cc1)C(=O)N[C@@H](Cc1c[nH]c2ccccc12)C(=O)N[C@@H](CCC(N)=O)C(=O)N1CC[C@H]1C(=O)N[C@@H](Cc1ccc(O)cc1)C(N)=O)[C@@H](C)O` [AEWTPGYWQJY--NH2] (H-AEWTPGYWQ[Aze]Y-NH2) belongs at most 100 µM.

What is called IC50 is the concentration at which inhibition is half-maximal. A low value points to greater potency in that assay.
